Results on 1 molecule are retold here after patent publication US20160022731A1, “[…] NITRIC OXIDE FOR TREATING RESPIRATORY DISEASES” (Advanced Inhalation Therapies (AIT) Ltd., priority 2013, published 2016).

Read-outs that look alike come from different tables or passages of the source. Where only a bound is given, the exact number is not on record here.

Data set [1] in a line: Phase I open label safety study of intermittent inhalation of 160 ppm gNO in healthy adults. The data set is classed as in vivo, human. An excerpt:
10 healthy adult volunteer subjects (5 males, 5 females), aged 20 to 62 years, were enrolled in the study after screening their medical history, a physical examination, pulmonary function tests and blood values. Exclusion criteria included individuals less than 19 years of age, pregnant females and unwilling to practice birth control during the study, diagnosed with pulmonary disease, epistaxis, hemoptysis, methemoglobinemia, organ transplant recipient or receiving antibiotic therapy.
After obtaining informed consent, treatment was initiated within 5 days of enrollment. Subjects were housed in a hospital ward and received 160 ppm gNO for 30 minutes every four hours (Q4 h), five times a day, for five consecutive days by inhalation. Subjects returned for follow-up evaluations 3, 7 and 21 days after the final gNO administration. Subject safety was determined by monitoring vital signs, methemoglobin levels, lung function, blood chemistry, hematology, prothrombin time, inflammatory cytokine/chemokines levels and endothelial activation. These parameters were compared to baseline and at various time-points during and after gNO administration.
Subjects were administered gNO through a modified disposable mouthpiece to maximize mixing. Inspiration was spontaneously initiated by the subject from a conventional intermittent positive pressure breathing respirator (Mark-7, Carefusion, USA) in fixed flow mode delivering 48 liters per minute (LPM). Flows of gas were verified with a calibrated mass flow meter (TSI, USA). Gaseous nitric oxide (gNO, obtained at INOmax, Ikaria, USA) at a concentration of 800 ppm delivered at a flow of 12 LPM was titrated into a distal delivery port on the mouth piece connected to the respirator during inspiratory phase only (pressure switch). The Mark 7 respirator was supplied by an air/oxygen blender (Bird Sentry, Carefusion, USA) set to deliver 26% oxygen.
The levels of gNO, NO2, O2 and methemoglobin were monitored during the administration of gNO. […] Inspiratory NO, NO2 and O2 levels were continuously monitored by sampling from the mouthpiece sample port located about 6 millimeters from the mouth of the subject with an AeroNOx (Pulmonox, AB, Canada) NO, NO2 and O2 electrochemical analyzer. Delivery safety was determined by the number of occasions that NO2 exceeded 5 ppm, gNO exceeding 10% variation and O2 dropping below 20% during gNO administration. […]
These parameters were measured continuously during every gNO administration course and for 3.5 hours after the first treatment of the day. Daily serum samples were collected and frozen at −80° C. and the serum […] level was measured using the Griess reagent.
Subjects underwent full pulmonary function tests (PFT), including lung diffusing capacity (DLCO) by a trained technician utilizing a calibrated pulmonary function system (Jaeger MasterScreen, VIASYS Healthcare, USA) on screening and days 2, 8, 12 and 26. […] Effect of gNO on lung function and DLCO was determined by changes from baseline, treatment days and follow up days.
General medical examinations were performed by a pulmonary physician on screening and on days 8, 12 and 26 to obtain oxygenation and vital sign measurements. […] Oxygenation was measured with a pulse oximeter (Rad 57, Masimo Corporation, USA) which was used according to manufacturer's guidelines to measure functional oxygen saturation of arterial hemoglobin (SpO2) and heart rate. […]

Data set [2] concerns S. aureus. Particulars: S. aureus on agar; 50-160 ppm gNO, vs medical air; cited from earlier work.
The test system of data set [3] is five planktonic species of methicillin resistant S. aureus (MRSA). The conditions noted are these: 1,600 ppm hours of gNO; cited from earlier work.
The subject of data set [4] is chronic, non-healing wound. The conditions noted are these: topical 200 ppm gNO; within the first three days of treatment; cited from earlier work.
Data set [5] relates to P. aeruginosa. The conditions noted are these: P. aeruginosa on agar; 50-160 ppm gNO, vs medical air; cited from earlier work.
The conditions of data set [6]: healthy humans, cited from earlier work.
The test system of data set [7] is bovine respiratory disease. The conditions noted are these: cattle; intermittent 30 minute exposures of gNO; cited from earlier work.
For data set [8] the following is noted: rats, cited from earlier work.

For the molecule `[N]=O` [gNO, nitric oxide], the “accumulative effect on SpMet” value in data set [1] (after five daily treatments for five consecutive days) is reported as “no accumulative or lingering effect on SpMet”. Moreover, the “DLCO, FVC, TLC and RV” value in data set [1] (during the course of the study) is reported as “did not change from baseline measurement”. In data set [1] (during the course of the study), the “airflow as measured by FEV1 and MMEF” value is recorded as “did not differ from baseline”. Also, in data set [1] (plasma), the “Ang-2 and Ang-2/Ang-1 ratios” value was “not affected”. Moreover, the “cytokine levels of TNF, IL-6, IL-8, IL-10, IL-1b and IL-12p70” value in data set [1] (plasma, compared to baseline) was “unaffected”. For the same molecule, the “survival (bactericidal trend)” value in data set [2] and in data set [5] was 5-10% throughout. In addition, in data set [3], the “population of planktonic MRSA strains” value is listed as “reduction in the population of all five MRSA planktonic strains”. In addition, the “presence of biofilm in the wound” value in data set [4] was “no longer visibly present”. Further, the “levels of MetHb” value in data set [6] (inhalation of gNO at 128 ppm for 3 hours) and in data set [6] (inhalation of gNO at 512 ppm for 55 minutes) was greater than 5% each time. Further, the “clinical symptoms of bovine respiratory disease” value in data set [7] is on record as “decrease the clinical symptoms of bovine respiratory disease”. For the same molecule, the mortality result in data set [8] (groups of 10, 300 ppm gNO, 6 continuous hours per day) was “Six of the animals treated with 300 ppm gNO died during the first 1-2 days”. For the same molecule, the MetHb levels in data set [8] (400 ppm gNO) was 72.5 percents; in data set [8] (500 ppm gNO), 67 percents.
